Active and inactive are the calls of the source. The calls are words filed in the database; no cut-off is given here.
Key:
[1] = Selectivity ratio of IC50 for human LO2 cells to IC50 for human Huh7S1 cells; assay type: toxicity; details: LO2 cells versus Huh7S1 cells, read-out: Ratio IC50
L02 = assay: Cytotoxicity against human LO2 cells after 48 hrs by MTT assay; assay type: cell-based; details: L02, 48 h
[2] = Cytotoxicity against human Huh7S1 cells after 48 hrs by MTT assay; assay type: functional, cell-based
HepG2 [3] = assay: Cytotoxicity against human HepG2 cells after 48 hrs by MTT assay; assay type: functional, cell-based; details: HepG2, 48 h
[4] = Selectivity ratio of IC50 for human LO2 cells to IC50 for human HepG2 cells; assay type: toxicity; details: LO2 cells versus HepG2 cells, read-out: Ratio IC50
HepG2 [5] = assay: Cytotoxicity against human HepG2 cells at 10 uM after 48 hrs by MTT assay; assay type: functional, cell-based

Structure (SMILES)	selectivity ratio [1]	IC50 (L02) [µM]	IC50 [2] [µM]	IC50 (HepG2 [3]) [µM]	selectivity ratio [4]	Activity (HepG2 [5])
CC(C)[C@@H](C)/C=C/[C@@H](C)[C@H]1CC[C@H]2C(=O)[C@@]3(CC[C@]12C)[C@@H](O)C[C@H]1C[C@@H](O)CC[C@@]13C	3.7	22.8	6.2	9.1	2.5	–
CNC(=O)c1cc(Oc2ccc(NC(=O)Nc3ccc(Cl)c(C(F)(F)F)c3)cc2)ccn1 [SORAFENIB]	–	9.1	–	5.5	1.6	–
CC(C)[C@@H](C)/C=C/[C@@H](C)[C@H]1CCC2=C3C=C[C@H]4C[C@@H](O)CC[C@]4(C)[C@H]3CC[C@@]21C	–	–	–	–	–	inactive
